Here are results for 24 molecules from patent publication US8198311B2, “Modulators of glucocorticoid receptor, AP-1, and/or NF-κB activity and use thereof” (Bristol-Myers Squibb Company, priority 2006, dated 2012).

Read-outs that look alike come from different tables or passages of the source. Bounds are passed on as bounds.

Test [1] has as its system AP-1 induced transcriptional activity. As to the kind of experiment: Cellular Transrepressional Assay (AP-1 luciferase reporter in A549 cells, PMA-activated). The format is cell-based. As to conditions: pAP-1-Luc, 10 ng/ml PMA, read-out: AP-1 (EC50, nM) (Cellular Transrepression Assay). A digest of the protocol: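 A549 cells stably carrying a 7×AP-1-luciferase reporter, stimulated with 10 ng/ml PMA with or without compound (0.1 nM-40 μM) for 7 h. Luciferase luminescence read 10 min after reagent addition; repression is percentage decrease of PMA-alone signal, EC50 by curve fitting.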
On the technique in general: In a reporter assay the amount or activity of a reporter protein is the signal.

The target in test [2] is T1, human full-length glucocorticoid receptor (Homo sapiens, UniProt P04150).
T1 construct: recombinantly expressed human full-length glucocorticoid receptor; purchased PanVera Co., Madison, Wis; P2816
T1 sequence (P04150 1-777): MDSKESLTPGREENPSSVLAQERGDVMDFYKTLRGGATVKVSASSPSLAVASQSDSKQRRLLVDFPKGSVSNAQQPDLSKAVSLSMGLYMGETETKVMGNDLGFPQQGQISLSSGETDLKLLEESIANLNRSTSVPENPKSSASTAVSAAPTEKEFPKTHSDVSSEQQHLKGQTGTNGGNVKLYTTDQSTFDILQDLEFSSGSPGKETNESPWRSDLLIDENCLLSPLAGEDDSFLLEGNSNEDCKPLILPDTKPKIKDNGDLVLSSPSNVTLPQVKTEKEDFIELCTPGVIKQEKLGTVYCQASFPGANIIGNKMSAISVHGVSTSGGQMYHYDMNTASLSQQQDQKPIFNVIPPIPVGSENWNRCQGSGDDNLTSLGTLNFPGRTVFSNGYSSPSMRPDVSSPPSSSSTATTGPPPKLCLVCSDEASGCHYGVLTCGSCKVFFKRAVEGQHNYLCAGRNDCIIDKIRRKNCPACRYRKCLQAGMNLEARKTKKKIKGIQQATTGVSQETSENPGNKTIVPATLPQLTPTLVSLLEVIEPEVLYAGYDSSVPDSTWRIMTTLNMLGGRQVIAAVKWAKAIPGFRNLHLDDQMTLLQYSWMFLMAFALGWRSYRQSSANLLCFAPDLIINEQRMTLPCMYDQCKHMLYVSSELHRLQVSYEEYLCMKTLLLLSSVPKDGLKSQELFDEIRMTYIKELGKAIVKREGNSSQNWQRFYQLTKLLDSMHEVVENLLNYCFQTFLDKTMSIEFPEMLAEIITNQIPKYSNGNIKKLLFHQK
The experiment in a line: Glucocorticoid Receptor Binding Assay (II), fluorescence polarization competitor kit (Fluormone GS1). The following applies: cell lysate with recombinant human full-length GR. On the procedure: In order to measure the binding of compounds on the glucocorticoid receptor a commercially available kit was used (Glucocorticoid receptor competitor assay kit, PanVera Co., Madison, Wis., P2816). Briefly, a cell lysate containing recombinantly expressed human full-length glucocorticoid receptor was mixed with a fluorescently labeled glucocorticoid (1 nM Fluormone GS1) in the presence or absence of test compound. After one hour at room temperature, the fluorescence polarization (FP) of the samples were measured. […] Test molecules were analyzed in the concentration range from 2.4 nM to 40 microMolar.

A word on the EC50: it is the concentration at which the effect is half-maximal. Broadly, the Ki is a dissociation constant, usually derived from enzyme kinetics or from competition with a known ligand. On to `CC(C)(C(c1ccccc1)c1ccc2c(cnn2-c2ccc(F)cc2)c1)C(C)(O)C(F)(F)F` (mixture of isomers) [Example 128, 1,1,1-Trifluoro-4-(1-(4-fluorophenyl)-1H-indazol-5-yl)-2,3,3-trimethyl-4-phenylbutan-2-ol], for which the EC50 in test [1] (Homo sapiens, A549, 7 h) is above 10000 nM. In addition, the Ki in test [2] worked out at 16 nM.

Take `CC(C)CC(c1ccc2c(cnn2-c2ccc(F)cc2)c1)C(C)(C)CNS(=O)(=O)CC(F)(F)F` (single isomer, unassigned) [Example 57A, 2,2,2-trifluoro-N-(3-(1-(4-fluorophenyl)-1H-indazol-5-yl)-2,2,5-trimethylhexyl)-ethanesulfonamide]: the EC50 in test [1] (Homo sapiens, A549, 7 h) was above 10000 nM. For the same molecule, in test [2], the Ki was 59 nM.

As for `CC(C)CC(c1ccc2c(cnn2-c2ccc(F)cc2)c1)C(C)(C)CNS(=O)(=O)CC(F)(F)F` (single isomer, unassigned) [Example 57B, 2,2,2-trifluoro-N-(3-(1-(4-fluorophenyl)-1H-indazol-5-yl)-2,2,5-trimethylhexyl)-ethanesulfonamide], the EC50 in test [1] (7 hours) is above 10000 nM. In addition, the Ki in test [2] was 15 nM.

Turning to `CC(C)CC(c1ccc2c(cnn2-c2ccc(F)cc2)c1)C(C)(C)CNC(=O)NCC(F)(F)F` (single isomer, unassigned) [Example 58A, 1-(3-(1-(4-fluorophenyl)-1H-indazol-5-yl)-2,2,5-trimethylhexyl)-3-(2,2,2-trifluoroethyl)urea], in test [1] (7 hours), the EC50 is above 10000 nM. Moreover, the Ki in test [2] is 14 nM.

As for `CC(C)CC(c1ccc2c(cnn2-c2ccc(F)cc2)c1)C(C)(C)CNC(=O)NCC(F)(F)F` (single isomer, unassigned) [Example 58B, 1-(3-(1-(4-fluorophenyl)-1H-indazol-5-yl)-2,2,5-trimethylhexyl)-3-(2,2,2-trifluoroethyl)urea], in test [1] (7 hours), the EC50 turned out to be 106 nM. Moreover, the Ki in test [2] turned out to be 8.8 nM.

`CC(C)CC(c1ccc2c(cnn2-c2ccc(F)cc2)c1)C(C)(C)CNC(=O)CC(F)(F)F` (single isomer, unassigned) [Example 59B, 3,3,3-trifluoro-N-(3-(1-(4-fluorophenyl)-1H-indazol-5-yl)-2,2,5-trimethylhexyl)propanamide]: the EC50 in test [1] (Homo sapiens, A549, 7 h) is above 10000 nM. Besides, the Ki in test [2] was 9.3 nM.

As to `CC(C)(CNS(=O)(=O)CC(F)(F)F)C(c1ccccc1)c1ccc2[nH]ncc2c1` (stereo in doubt) [(R)-83, (S)-N-(3-(1H-indazol-5-yl)-2,2-dimethyl-3-phenylpropyl)-2,2,2-trifluoroethanesulfonamide], in test [1] (Homo sapiens, A549, 7 h), the EC50 is above 10000 nM. Also, the Ki in test [2] stood at 547 nM.

On to `CC(C)(CNC(=O)C(F)(F)F)[C@H](c1ccccc1)c1ccc2c(cnn2-c2ccc(F)cc2)c1` [(R)-16, (R)-2,2,2-trifluoro-N-(3-(1-(4-fluorophenyl)-1H-indazol-5-yl)-2,2-dimethyl-3-phenylpropyl)acetamide], for which the EC50 in test [1] (Homo sapiens, A549, 7 h) turned out to be 61 nM. In test [2], the Ki was 7.4 nM.

Turning to `CC(C)(CNC(=O)CC(F)(F)F)[C@H](c1ccccc1)c1ccc2c(cnn2-c2ccc(F)cc2)c1` [(R)-17, (R)-3,3,3-trifluoro-N-(3-(1-(4-fluorophenyl)-1H-indazol-5-yl)-2,2-dimethyl-3-phenylpropyl)-propanamide], in test [1] (Homo sapiens, A549, 7 h), the EC50 was found to be 99 nM. In addition, the inhibitory constant (Ki) in test [2] was determined as 12 nM.

For the molecule `CC(C)(CNC(=O)CC(F)(F)F)[C@H](c1ccccc1)c1ccc2[nH]ncc2c1` [(R)-82, (R)-N-(3-(1H-indazol-5-yl)-2,2-dimethyl-3-phenylpropyl)-3,3,3-trifluoropropanamide], in test [1] (Homo sapiens, A549, 7 h), the EC50 was above 10000 nM. For the same molecule, in test [2], the Ki was 628 nM.

Regarding `CC(C)(CNC(=O)CC(F)(F)F)[C@@H](c1ccccc1)c1ccc2[nH]ncc2c1` [(S)-82, (S)-N-(3-(1H-indazol-5-yl)-2,2-dimethyl-3-phenylpropyl)-3,3,3-trifluoropropanamide], the EC50 in test [1] (Homo sapiens, A549, 7 h) was above 10000 nM. Besides, the Ki in test [2] was found to be 39 nM.

Regarding `CC(C)(CNS(=O)(=O)CC(F)(F)F)[C@@H](c1ccccc1)c1ccc2[nH]ncc2c1` [(S)-83, (S)-N-(3-(1H-indazol-5-yl)-2,2-dimethyl-3-phenylpropyl)-2,2,2-trifluoroethanesulfonamide], the EC50 in test [1] (Homo sapiens, A549, 7 h) was above 10000 nM. In test [2], the Ki is 34 nM.

Turning to `CC(C)(C)CC(=O)NCC(C)(C)[C@@H](c1ccccc1)c1ccc2c(cnn2-c2ccc(F)cc2)c1` [Example 1, (S)-N-(3-(1-(4-fluorophenyl)-1H-indazol-5-yl)-2,2-dimethyl-3-phenylpropyl)-3,3-dimethylbutanamide], the EC50 in test [1] (Homo sapiens, A549, 7 h) amounted to 1280 nM. Also, the inhibitory constant (Ki) in test [2] turned out to be 8.3 nM.

For `CC(C)(CNS(C)(=O)=O)[C@@H](c1ccccc1)c1ccc2c(cnn2-c2ccc(F)cc2)c1` [Example 6, (S)-N-(3-(1-(4-fluorophenyl)-1H-indazol-5-yl)-2,2-dimethyl-3-phenylpropyl)methanesulfonamide], the EC50 in test [1] (Homo sapiens, A549, 7 h) was 47 nM. For the same molecule, in test [2], the Ki amounted to 4.9 nM.

`CC(C)S(=O)(=O)NCC(C)(C)[C@@H](c1ccccc1)c1ccc2c(cnn2-c2ccc(F)cc2)c1` [Example 7, (S)-N-(3-(1-(4-fluorophenyl)-1H-indazol-5-yl)-2,2-dimethyl-3-phenylpropyl)propane-2-sulfonamide]: the EC50 in test [1] (Homo sapiens, A549, 7 h) is 139 nM. In addition, the Ki in test [2] is 6.1 nM.

Consider `CC(C)(CNC(=O)C1(C(F)(F)F)CC1)[C@@H](c1ccccc1)c1ccc2c(cnn2-c2ccc(F)cc2)c1` [Example 10, (S)-N-(3-(1-(4-fluorophenyl)-1H-indazol-5-yl)-2,2-dimethyl-3-phenylpropyl)-1-(trifluoromethyl)cyclopropanecarboxamide], for which the EC50 in test [1] (Homo sapiens, A549, 7 h) came out at 143 nM. In test [2], the Ki was found to be 19 nM.

Take `CCS(=O)(=O)NCC(C)(C)[C@@H](c1ccccc1)c1ccc2c(cnn2-c2ccc(F)cc2)c1` [Example 11, (S)-N-(3-(1-(4-fluorophenyl)-1H-indazol-5-yl)-2,2-dimethyl-3-phenylpropyl)ethanesulfonamide]: the EC50 in test [1] (Homo sapiens, A549, 7 h) is 29 nM. Besides, the Ki in test [2] was 16 nM.

Consider `CCCS(=O)(=O)NCC(C)(C)[C@@H](c1ccccc1)c1ccc2c(cnn2-c2ccc(F)cc2)c1` [Example 13, (S)-N-(3-(1-(4-fluorophenyl)-1H-indazol-5-yl)-2,2-dimethyl-3-phenylpropyl)propane-1-sulfonamide], for which the EC50 in test [1] (Homo sapiens, A549, 7 h) was determined as 181 nM. Moreover, the inhibition constant Ki in test [2] amounted to 19 nM.

As for `CC(C)(CNC(=O)C(F)(F)C(F)(F)F)[C@@H](c1ccccc1)c1ccc2c(cnn2-c2ccc(F)cc2)c1` [Example 19, (S)-2,2,3,3,3-pentafluoro-N-(3-(1-(4-fluorophenyl)-1H-indazol-5-yl)-2,2-dimethyl-3-phenylpropyl)propanamide], the EC50 in test [1] (Homo sapiens, A549, 7 h) is above 10000 nM. Further, in test [2], the Ki is 11 nM.

`CC(C)(CNC(=O)Cc1cccs1)[C@H](c1ccccc1)c1ccc2c(cnn2-c2ccc(F)cc2)c1` [Example 21, (R)-N-(3-(1-(4-fluorophenyl)-1H-indazol-5-yl)-2,2-dimethyl-3-phenylpropyl)-2-(thiophen-2-yl)acetamide]: in test [1] (Homo sapiens, A549, 7 h), the EC50 stood at 266 nM. Moreover, the Ki in test [2] came to 39 nM.

For the molecule `CC(=O)NCC(C)(C)[C@H](c1ccccc1)c1ccc2c(cnn2-c2ccc(F)cc2)c1` [Example 22, (R)-N-(3-(1-(4-fluorophenyl)-1H-indazol-5-yl)-2,2-dimethyl-3-phenylpropyl)acetamide], in test [1] (Homo sapiens, A549, 7 h), the EC50 is 679 nM. Also, the Ki in test [2] worked out at 17 nM.

With `COC(=O)C(=O)NCC(C)(C)[C@H](c1ccccc1)c1ccc2c(cnn2-c2ccc(F)cc2)c1` [Example 23, (R)-methyl 2-(3-(1-(4-fluorophenyl)-1H-indazol-5-yl)-2,2-dimethyl-3-phenylpropylamino)-2-oxoacetate], in test [1] (Homo sapiens, A549, 7 h), the EC50 was 5960 nM. Moreover, the Ki in test [2] stood at 62 nM.

As to `CC(C)(CNC(=O)C(=O)O)[C@H](c1ccccc1)c1ccc2c(cnn2-c2ccc(F)cc2)c1` [Example 24, (R)-2-(3-(1-(4-fluorophenyl)-1H-indazol-5-yl)-2,2-dimethyl-3-phenylpropylamino)-2-oxoacetic acid], the EC50 in test [1] (Homo sapiens, A549, 7 h) was above 10000 nM. Further, the Ki in test [2] was found to be 351 nM.

As to `CC(C)CC(c1ccc2c(cnn2-c2ccc(F)cc2)c1)C(C)(C)CNC(=O)C(F)(F)F` (stereo not drawn) [Example 25, 2,2,2-trifluoro-N-(3-(1-(4-fluorophenyl)-1H-indazol-5-yl)-2,2,5-trimethylhexyl)acetamide], the EC50 in test [1] (Homo sapiens, A549, 7 h) is above 10000 nM. Moreover, the Ki in test [2] came to 8.2 nM.
